Measured values published in US10874669B2 (WAYNE STATE UNIVERSITY, priority 2018, dated 2020).
pEC50, pKi: −log10 of the molar value. Entries after “also recorded” stand apart in the source; their conditions may differ.

Assays:
[1] = tested on: PC12 cells; details: previously shown; cited from earlier work
[2] = biological target: α-syn (Homo sapiens (Human), UniProt P37840); details: previously shown; cited from earlier work
[3] = biological target: cloned rat D2L receptors (Rattus norvegicus (Rat), UniProt P61169); experiment: [3H]spiroperidol competition binding, rat D2L receptors in HEK-293 cells; details: rat D2 in HEK-293 cells; values of Table 3
Excerpt: (§1) All these procedures were described by us previously.

[4] = tested on: PC12 cells; experiment: DCFDA fluorescence assay of intracellular ROS induced by 6-OHDA; format: cell-based, rat; details: 20 μM, 24 h pretreatment, then 75 μM 6-OHDA 1 h
Description: Experimental detection of reactive oxygen species (ROS) produced by 6-OHDA was carried out by DCFDA assay. 6-OHDA, a well known neurotoxin, produces oxidative stress similar to what is observed in PD and the mechanism of neurotoxicity of 6-OHDA takes place via its auto-oxidation and subsequent generation of hydrogen peroxide. DCFDA is a non-fluorogenic dye but in the presence of ROS, it is oxidized to produce DCF which produces florescence. We have previously shown that 6-OHDA causes cell death in a dose-dependent manner. We chose 75 μM 6-OHDA as we have shown that this dose induces 40-50% cell death. […] However, the test compounds could dose dependently decrease the production of ROS induced by 6-OHDA (75 μM) in PC12 cells. In this regard, highest dose of all the three compounds was the most efficacious in producing significant antioxidant effect.
(§2) PC12 cells (ATCC CRL1721.1, Manassas, Va., USA), a rat adrenal pheochromocytoma cell line, were cultured in T-75 flasks (Greiner Bio One, Frickenhausen, Germany) and maintained in RPMI 1640 medium supplemented with 10% heat inactivated horse serum, 5% fetal bovine sérum, 100 U/ml penicillin, and 100 μg/mL streptomycin at 37° C. in 95% air/5% CO2. […]
PC12 cells were plated at 30,000 cells/well density in 100 μL media in 96-well black plates and incubated at 37° C. under 5% CO2 atmosphere for 24 h. […] After incubation for 1 h, the fluorescence was measured using spectrophotometer fluorescence generated microplate reader (Biotek Epoch, Winooski, Vt., USA) at excitation 497 nm and emission at 527 nm. […] The specific fluorescence emission was calculated after subtraction of the DCFDA untreated control cells from the DCFDA treated cells for both the background and 1 h treatment conditions. This was followed by the division of the 1 h treatment data by the background activity which was determined from vials before treatment with 6-OHDA, to derive the final data point.

[5] = biological target: human DA D3 receptors (Homo sapiens (Human), UniProt P35462); experiment: [35S]GTPγS binding stimulation, human D3 receptors in CHO cells; format: biochemical
[6] = tested on: PC12 cells; experiment: MTT cell viability, compounds alone; format: cell-based, rat; details: 0.01-30 μM, compared to untreated controls
Description: (§3) To investigate the neuroprotection property of the selected target molecules (−)-91b, (−)-95a and (−)-95c against 6-OHDA-induced cytotoxicity, we used dopaminergic rat adrenal Pheochromocytoma PC12 cells. As reported above, treatment of PC12 cells with 6-OHDA at 75 μM for 24 h produced ˜50% loss in cells viability and this concentration was used in subsequent experiments. […] However, (−)-95a produced some incremental toxicity starting at 20 μM dose (FIG. 4B). The potential neuroprotective effects of (−)-91b, (−)-95a and (−)-95c against 6-OHDA-induced toxicity were evaluated next. […] At those concentration both drugs increased cell survival by ˜20% compared to 6-OHDA (75 μM) treated alone (FIGS. 4D and 4F), indicating neuroprotective effect of these drugs. […] This could be due to the fact that the compound by itself produced toxicity to the cells at doses ≥20 μM and the presence of 6-OHDA enhanced the toxicity (FIG. 4B).
as §2, with “serum,” for “sérum,”, “CO2. Stock solutions of (−)-91b, (−)-95a, (−)-95c, and 6-hydroxydopamine (6-OHDA) were prepared in dimethylsulfoxide (DMSO) and aliquots were stored at −20° C. and −80° C., respectively.” for “CO2.”
PC12 cells were plated at 17000 cells/well density in 100 μL of media in 96-well plates and incubated at 37° C. under 5% CO2 atmosphere for 24 h. […] The absorbance was measured on a microplate reader (Biotek Epoch, Winooski, Vt., USA) at 570 nm with background correction performed at 690 nm. Data from at least three experiments were analyzed using GraphPad software (version 6, San Diego, Calif., USA). Cell viability was defined as […] compared to untreated controls.

[7] = tested on: PC12 cells; experiment: MTT neuroprotection against 6-OHDA-induced toxicity; format: cell-based, rat
Description: as §3
PC12 cells (ATCC CRL1721.1, Manassas, Va., USA), a rat adrenal pheochromocytoma cell line, were cultured in T-75 flasks (Greiner Bio One, Frickenhausen, Germany) and maintained in RPMI 1640 medium supplemented with 10% heat inactivated horse serum, 5% fetal bovine serum, 100 U/ml penicillin, and 100 μg/mL streptomycin at 37° C. in 95% air/5% CO2. Stock solutions of (−)-91b, (−)-95a, (−)-95c, and 6-hydroxydopamine (6-OHDA) were prepared in dimethylsulfoxide (DMSO) and aliquots were stored at −20° C. and −80° C., respectively. For all experiments assessing neuroprotective effects of the test compounds, PC12 cells were pretreated with indicated concentrations of (−)-91b, (−)-95a and (−)-95c for 24 h and then treated with 75 μM 6-OHDA for another 24 h. The control cells were treated with above media containing 0.01% DMSO only.
PC12 cells were plated at 17000 cells/well density in 100 μL of media in 96-well plates and incubated at 37° C. under 5% CO2 atmosphere for 24 h. Cells were treated with varying concentrations of the test compounds to determine their direct effect on cell viability. Neuroprotection experiments were conducted by treating cells for 24 h with varying concentrations of (−)-91b, (−)-95a and (−)-95c. Then the drug containing media was replaced with fresh culture media followed by treatment with 75 μM of 6-OHDA alone for an additional 24 h under the same condition. After incubation for 24 h, 5 mg/mL MTT solution (prepared in Dulbecco's phosphate-buffered saline) was added to the cells (to a final concentration of 0.5 mg/mL) and the plates were further incubated at 37° C. in 95% air/5% CO2 atmosphere for 3-4 h to produce dark-blue formazan crystals. Afterward, the plates were centrifuged at 450 g for 10 min and the supernatants were carefully removed. Formazan crystals were dissolved by adding 100 μL of methanol:DMSO (1:1) mixture to each well and shaking gently at 400 rpm for 30 min at room temperature on a Thermomix R shaker (Eppendorf, Hamburg, Germany). The absorbance was measured on a microplate reader (Biotek Epoch, Winooski, Vt., USA) at 570 nm with background correction performed at 690 nm. Data from at least three experiments were analyzed using GraphPad software (version 6, San Diego, Calif., USA). Cell viability was defined as […] compared to untreated controls.

[8] = biological target: cloned rat D3 receptors (Rattus norvegicus (Rat), UniProt P19020); experiment: [3H]spiroperidol competition binding, rat D3 receptors in HEK-293 cells; details: rat D3 in HEK-293 cells; values of Table 3
Description: A well established radioligand competition assay was carried out to evaluate binding affinity of the test compounds and were compared with that of the reference agent (S)-5-OH-DPAT (Table 3). Binding affinity to rat DA D2 and D3 receptors expressed in HEK-293 cells was determined as described by us previously. […] This indicated highest tolerance of the 4-substituted carbazole derivative for interaction with the D2 and D3 receptors.
as §1

[9] = biological target: human DA D2 receptors (Homo sapiens (Human), UniProt P14416); experiment: [35S]GTPγS binding stimulation, human D2 receptors in CHO cells; format: biochemical
[10] = tested on: reserpine-induced hypolocomotion in rats; experiment: Reversal of reserpine-induced hypolocomotion in rats; details: 10 μMol/kg, ip
Description: In this model depletion of catecholamines by reserpine results in catalepsy in rats.
The following commercially available drug was used in the experiment: reserpine hydrochloride (Alfa Aesar). […] The compounds for this study were administered in a volume of 0.1-0.2 mL for subcutaneous administration and 0.5-0.7 ml for interaperitoneal administration into each rat.
In rodent studies, animals were male and female Sprague-Dawley rats from Harlan (Indianapolis, Ind.) weighing 220-225 g unless otherwise specified. Animals were maintained in sawdust-lined cages in a temperature and humidity controlled environment at 22±1° C. and 60±5% humidity, respectively. A 12 h light/dark cycle was maintained, with lights on from 6:00 a.m. to 6:00 p.m. They were group-housed with unrestricted access to food and water. All experiments were performed during the light component.
Reserpine (5.0 mg/kg, sc) was administered 18 h before the injection of drug or vehicle. The rats were placed individually in the chambers for 1 h for acclimatization before administration of the test drugs or vehicle. Immediately after administration of drug or vehicle, animals were individually placed in Opto-Varimex 4 animal activity monitor chamber (Columbus Instruments, Ohio, USA) to start measuring locomotor activity. Locomotion was monitored for 6 h. […] The data were presented as horizontal activity (HACTV). […] The data were analyzed by one-way analysis of variance (ANOVA) followed by Dunnett's post hoc test.

[11] = compared with maximum stimulation by full agonist DA

human DA D3 receptors, sequence (P35462 whole entry): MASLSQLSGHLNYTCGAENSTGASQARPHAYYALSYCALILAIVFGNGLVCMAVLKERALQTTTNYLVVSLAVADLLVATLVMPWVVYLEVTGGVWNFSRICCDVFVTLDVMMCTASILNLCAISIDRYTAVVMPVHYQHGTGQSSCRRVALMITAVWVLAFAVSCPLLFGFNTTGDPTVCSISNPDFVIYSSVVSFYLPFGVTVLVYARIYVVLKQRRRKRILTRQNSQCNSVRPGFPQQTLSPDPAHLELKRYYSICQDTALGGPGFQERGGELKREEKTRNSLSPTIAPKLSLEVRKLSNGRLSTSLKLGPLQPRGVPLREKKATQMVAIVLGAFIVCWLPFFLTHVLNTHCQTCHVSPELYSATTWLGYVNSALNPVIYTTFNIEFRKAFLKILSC
human DA D2 receptors, sequence (P14416 whole entry): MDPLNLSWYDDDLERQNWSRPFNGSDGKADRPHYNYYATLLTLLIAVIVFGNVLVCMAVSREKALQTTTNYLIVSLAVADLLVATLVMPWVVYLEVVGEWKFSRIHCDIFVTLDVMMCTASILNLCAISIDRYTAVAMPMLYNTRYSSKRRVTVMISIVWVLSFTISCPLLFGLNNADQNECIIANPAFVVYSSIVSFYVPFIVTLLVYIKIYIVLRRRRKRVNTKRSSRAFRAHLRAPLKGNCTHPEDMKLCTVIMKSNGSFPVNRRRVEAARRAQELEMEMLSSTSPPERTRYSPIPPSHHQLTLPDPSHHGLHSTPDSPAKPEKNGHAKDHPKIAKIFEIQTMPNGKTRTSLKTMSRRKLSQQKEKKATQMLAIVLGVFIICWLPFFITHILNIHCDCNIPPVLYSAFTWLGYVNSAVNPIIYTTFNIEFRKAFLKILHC
cloned rat D2L receptors, sequence (P61169 whole entry): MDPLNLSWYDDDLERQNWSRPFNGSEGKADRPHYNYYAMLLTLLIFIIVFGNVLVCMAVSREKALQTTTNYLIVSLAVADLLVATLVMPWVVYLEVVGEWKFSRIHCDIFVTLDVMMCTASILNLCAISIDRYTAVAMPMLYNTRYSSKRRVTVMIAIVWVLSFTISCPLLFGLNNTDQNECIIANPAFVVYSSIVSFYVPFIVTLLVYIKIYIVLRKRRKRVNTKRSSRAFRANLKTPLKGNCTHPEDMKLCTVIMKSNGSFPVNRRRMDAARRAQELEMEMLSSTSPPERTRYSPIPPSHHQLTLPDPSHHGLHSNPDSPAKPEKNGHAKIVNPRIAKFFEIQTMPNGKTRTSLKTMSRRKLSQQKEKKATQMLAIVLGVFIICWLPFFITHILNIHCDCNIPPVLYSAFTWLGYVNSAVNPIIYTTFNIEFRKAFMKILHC
cloned rat D3 receptors, sequence (P19020 whole entry): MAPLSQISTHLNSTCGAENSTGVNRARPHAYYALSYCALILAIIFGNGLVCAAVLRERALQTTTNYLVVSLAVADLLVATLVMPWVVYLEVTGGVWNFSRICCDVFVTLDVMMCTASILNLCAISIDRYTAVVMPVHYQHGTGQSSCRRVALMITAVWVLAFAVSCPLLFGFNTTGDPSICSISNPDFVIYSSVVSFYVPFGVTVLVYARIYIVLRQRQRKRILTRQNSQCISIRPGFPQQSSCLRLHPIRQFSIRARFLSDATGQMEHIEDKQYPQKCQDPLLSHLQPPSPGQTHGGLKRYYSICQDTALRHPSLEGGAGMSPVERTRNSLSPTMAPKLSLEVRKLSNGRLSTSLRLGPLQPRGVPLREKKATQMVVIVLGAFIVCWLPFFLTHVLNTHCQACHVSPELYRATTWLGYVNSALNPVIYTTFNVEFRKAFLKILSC

Row | pKi [3] | pEC50 ([5]; CHO cells, read-out: EC50 (GTPγS), D3) | Emax [5, 11] [%] | pKi [8] | pEC50 ([9]; CHO cells, read-out: EC50 (GTPγS), D2) | Emax [9, 11] [%] | Structure (SMILES) | reducing toxicities of α-syn aggregates, compared to hybrid agonist [1] | decreasing ThT fluorescence, compared to hybrid agonist [2] | reduction in ROS [4] [%] | cell viability, compound alone [6] | concentration of greatest protective effect ([7]; 24 h pretreatment, then 75 μM 6-OHDA 24 h) [µM] | increase in cell survival compared to 6-OHDA treated alone ([7]; at concentration of greatest protective effect, 75 μM 6-OHDA) [%] | duration of locomotor activation ([10]; locomotion monitored for 6 h) | reversal of reserpine-induced akinesia / hypolocomotion (horizontal activity) ([10]; reserpine 5 mg/kg sc, 18 h pretreatment, rats)
1 |  |  |  |  |  |  | CCCN(CCC)C1CCc2c(O)cccc2C1 (stereo not shown) [Compound 5-OHDPAT, 5-hydroxy-2-(dipropylamino)tetralin] | far less effective | far less effective |  |  |  |  |  | 
2 | 7.77 | 9.66 | 74 to 88 | 9.44 | 8.64 | 74 to 88 | CCCN(CCN1CCN(c2cccc3[nH]c4ccccc4c23)CC1)[C@H]1CCc2c(O)cccc2C1 [Compound (−)-95c, (S)-6-((2-(4-(9H-carbazol-4-yl)piperazin-1-yl)ethyl)(propyl)amino)-5,6,7,8-tetra-hydronaphthalen-1-ol] |  |  | 36 | no cells loss | 20 | ~20 | significant enhancement of locomotion for the duration of the study of 6 h | significantly reversed akinesia; also recorded: significantly different
3 |  |  |  |  |  |  | CCCN[C@H]1CCc2nc(N)sc2C1 [Pramipexole] | far less effective | far less effective |  |  |  |  |  | 
